Results published in US20240159706A1, “MALDI-MS METHOD, PHOTO-SENSITIVE MALDI MATRIX COMPOSITE AND PHOTO-CAGED MALDI MATRIX COMPOUND FOR USE IN SAID METHOD AND RESPECTIVE USES” (SIRIUS FINE CHEMICALS SICHEM GMBH, priority 2021, published 2024).
Like-named read-outs stand apart in the source and are kept apart here.

Experiments:
[1] = Solubility tests with Photo-caged MALDI Matrix Compounds in solvents/solvent systems; type: physicochemical; settings: for solubility: thermodynamic from solid, read-out: solubility (completely dissolved at 2.5 mg/mL); for solubility in the solvents or solvent systems under review: overall rating from Table 2, Solvents 1-10
Experimental: Photo-caged MALDI Matrix Compounds according to the invention were prepared as described in Example 1 above and tested for solubility in different solvents (including solvent systems). The solvents (including solvent systems) used in this Example 2 are listed here below in Table 1:
Around 1 mg of each Photo-caged MALDI Matrix Compound was weighed into an Eppendorf tube using an analytical balance. The calculated amount of selected solvent was added into the tube to generate a solution at a maximal concentration of 2.5 mg/mL. An ultrasonic bath was used for max. 3 min. to accelerate the dissolving process.
The numbers of the compounds used in this Example 2 refer to the example numbers of Example 1 above. In Table 2 below, the mark “X” in a cell means, that the respective compound was completely dissolved in the respective solvent or solvent system in a concentration of 2.5 mg/mL.

[2] = Dissolution of matrix compounds when preparing test solutions (Example 4a); type: physicochemical
Experimental: Conventional MALDI matrix compounds 2,5-dihydroxybenzoic acid (2,5-DHB); 1,5-diaminonaphthalene (1,5-DAN); 3-hydroxycoumarin (3-HC); […] (2,5-DHAP); 2-mercaptobenzothiazole (2-MBT) and dithranol, respectively, were dissolved in acetonitrile/water (1:1 v/v) at a concentration of 5 mg/mL. […] 1 μL of each resulting solution was pipetted onto an ITO glass slide. After droplets had dried in the air, a first optical image (Aperio CS2 Scanner, Leica Biosystems, Wetzlar, Germany) of the whole ITO slides at 0 min. was recorded. The slides were then incubated at about 35° C. and a vacuum between about 3.5×10^−6 mbar (t=0 min.) and about 1.4×10^−7 mbar (t=892 min.) in an ultrafleXtreme™ MALDI TOF mass spectrometer (Bruker Daltonics) equipped with a Smartbeam-II Nd:YAG laser (355 nm) for time periods of 18 min., 80 min. and 892 min., respectively. After each time interval, additional optical images were taken of the slides. For 2,5-dihydroxyacetophenone (2,5-DHAP) a similar test was performed with a diluted solution (2.5 mg/mL). […]

[3] = Additional vacuum stability test, compounds sprayed on ITO slides with porcine brain tissue sections (Example 4a); type: physicochemical; settings: 21 hrs, about 35° C., vacuum up to about 1.4×10^−7 mbar
Experimental: In a separate experiment, frozen porcine brain tissue was sectioned into 10 μm slices using a Leica CM1950 clinical cryostate (Leica Biosystems, Germany) at a chamber temperature of −15° C. and a head temperature of −10° C. The tissue sections were thaw-mounted onto ITO glass slides and dried for 20 min under vacuum. The ITO glass object slides with tissue sections were then sealed and stored at −80° C. until analysis. Shortly before usage, the slides were taken out from the freezer and thawed at room temperature for 20 min. under vacuum.
Photo-caged MALDI Matrix Compounds of Examples Ex. 1.1 (DMNB-2,5-DHAP), 1.7 (CNB-2,5-DHAP), 1.8 (PMNB-2,5-DHAP) and 1.9 (DMNBC-2,5 DHAP) were dissolved (Ex. 1.1: 2.5 mg/mL in standard solvent according to table 2 above; Ex.: 1.7 and 1.8:2.5 mg/mL in acetonitrile/water 7:3 (v/v)+0.1% trifluoroacetic acid; Ex. 1.9: saturated solution <2.5 mg/mL in acetonitrile/water 8:2 (v/v)+0.1% trifluoroacetic acid) and sprayed onto the ITO slides as prepared above, including to the porcine brain tissue sections thereof (see above) with a HTX M5 sprayer (HTX Technologies, USA), spray parameters: temperature of spray nozzle/tray: 50° C./25° C., Spray nozzle velocity 1000 mm/min; nozzle height: 40 mm. Twenty passes with a flow rate of 60 μL/min and a pressure of 10 psi were sprayed. Optical images of the sprayed slides were then recorded before incubation and after incubation in an ultrafleXtreme™ MALDI TOF mass spectrometer (see above) for 21 hrs at about 35° C. and a vacuum of up to about 1.4×10^−7 mbar.

[4] = stated as known; cited from earlier work
[5] = Crystallisation test by spray method; type: physicochemical; settings: on ITO object slide, by scanning electron microscopy
Experimental: The Photo-caged MALDI Matrix Compound of Ex. 1.1 according to the invention was prepared as described in Example 1 above and spray-tested for its crystallization properties in a spraying method on (i) an indium tin-oxide (ITO) object slide and (ii) on a sliced sample of porcine brain.
In each case, a solution of the Photo-caged MALDI Matrix Compound of Ex. 1.1 (concentration 2.5 mg/mL in acetonitrile/water v/v 4/1) was sprayed onto the surfaces of (i) an ITO object slide and (ii) on a sliced sample of porcine brain with a MALDI HTX M5 Sprayer™ (by HTX Technologies, LLC, USA).
The operating parameters applied were as follows: Temperature of spraying nozzle: 50° C./flow rate: 0.06 mL/min/speed of spraying nozzle: 1000 mm/min/spraying distance: 40 mm.
The resulting crystals on (i) an ITO object slide and (FIG. 1 to 3) (ii) on a sliced sample of porcine brain (FIG. 4 to 5) where then analyzed by optical scanning (in 20-fold magnification) and by scanning electron microscopy (in 5000-fold and 10000-fold magnification), as shown in FIG. 1 to 5.

[6] = Solvent 5: Methanol/water (v/v 90/10)
[7] = Solvent 6: Methanol/water (v/v 90/10) + 0.1% trifluoroacetic acid
[8] = Solvent 7: Methanol/water (v/v 90/10) + 50 mM (final conc.) NH4HCO3
[9] = Solvent 8: Methanol/water (v/v 85/15)
[10] = Solvent 9: Methanol/water (v/v 85/15) + 0.1% trifluoroacetic acid
[11] = Solvent 10: Methanol/water (v/v 85/15) + 50 mM (final conc.) NH4HCO3
[12] = organic solvent or mixture, Solvent 1: Acetonitrile
[13] = organic solvent or mixture, Solvent 2: Acetonitrile/water (v/v 90/10)
[14] = organic solvent or mixture, Solvent 3: Acetonitrile/water (v/v 90/10) + 0.1% trifluoroacetic acid
[15] = organic solvent or mixture, Solvent 4: Acetonitrile/water (v/v 85/15) + 0.1% trifluoroacetic acid
[16] = organic solvent or mixture, Solvent 5: Methanol/water (v/v 90/10)
[17] = Solvent 2: Acetonitrile/water (v/v 90/10)
[18] = Solvent 3: Acetonitrile/water (v/v 90/10) + 0.1% trifluoroacetic acid
[19] = Solvent 4: Acetonitrile/water (v/v 85/15) + 0.1% trifluoroacetic acid
[20] = organic solvent or mixture, Solvent 6: Methanol/water (v/v 90/10) + 0.1% trifluoroacetic acid

Row | SMILES | solubility (completely dissolved at 2.5 mg/mL) [1, 6] | solubility (completely dissolved at 2.5 mg/mL) [1, 7] | solubility (completely dissolved at 2.5 mg/mL) [1, 8] | solubility (completely dissolved at 2.5 mg/mL) [1, 9] | solubility (completely dissolved at 2.5 mg/mL) [1, 10] | solubility (completely dissolved at 2.5 mg/mL) [1, 11] | solubility [1, 12] [µg/mL] | solubility [1, 13] [µg/mL] | solubility [1, 14] [µg/mL] | solubility [1, 15] [µg/mL] | solubility in the solvents or solvent systems under review [1] | presence on ITO slides / porcine brain tissue sections after incubation under vacuum [3] | further results
1 | COc1cc(COc2cccc(O)c2C(C)=O)c([N+](=O)[O-])cc1OC [Ex. 1.4, 1-(2-((4,5-Dimethoxy-2-nitrobenzyl)oxy)-6-hydroxyphenyl)ethan-1-one] | ◯ | ◯ | ◯ | ◯ | ◯ | ◯ | > 2500 | > 2500 | > 2500 | > 2500 | very good solubility | – | –
2 | COc1cc(CSc2nc3ccccc3s2)c([N+](=O)[O-])cc1OC [Ex. 1.5, 2-((4,5-Dimethoxy-2-nitrobenzyl)thio)benzo[d]thiazole] | – | ◯ | ◯ | ◯ | ◯ | ◯ | > 2500 | > 2500 | > 2500 | > 2500 | very good solubility | – | solubility [1, 16]: > 2500 µg/mL
3 | COc1cc(COc2cccc3c2C(=O)c2c(O)cccc2C3)c([N+](=O)[O-])cc1OC [Ex. 1.6, 1-((4,5-Dimethoxy-2-nitrobenzyl)oxy)-8-hydroxyanthracen-9(10H)-one] | ◯ | ◯ | ◯ | ◯ | ◯ | ◯ | – | – | – | – | – | – | solubility (completely dissolved at 2.5 mg/mL) ([1]; Solvent 1: Acetonitrile): ◯; solubility (completely dissolved at 2.5 mg/mL) [1, 17]: ◯; solubility (completely dissolved at 2.5 mg/mL) [1, 18]: ◯; solubility (completely dissolved at 2.5 mg/mL) [1, 19]: ◯
4 | COc1cc(CNc2cccc3c(N)cccc23)c([N+](=O)[O-])cc1OC [Ex. 1.2, N^1-(4,5-dimethoxy-2-nitrobenzyl)naphthalene-1,5-diamine] | – | – | – | – | – | – | > 2500 | > 2500 | > 2500 | > 2500 | excellent solubility | – | solubility ([1]; methanol/water (v/v 85/15) + 50 mM NH4HCO3, organic solvent or mixture, Solvent 10: Methanol/water (v/v 85/15) + 50 mM (final conc.) NH4HCO3): > 2500 µg/mL; solubility ([1]; methanol/water (v/v 90/10) + 50 mM NH4HCO3, organic solvent or mixture, Solvent 7: Methanol/water (v/v 90/10) + 50 mM (final conc.) NH4HCO3): > 2500 µg/mL; solubility [1, 16]: > 2500 µg/mL; solubility [1, 20]: > 2500 µg/mL; solubility ([1]; organic solvent or mixture, Solvent 8: Methanol/water (v/v 85/15)): > 2500 µg/mL; solubility ([1]; organic solvent or mixture, Solvent 9: Methanol/water (v/v 85/15) + 0.1% trifluoroacetic acid): > 2500 µg/mL
5 | COc1cc(COC(=O)Oc2ccc(O)c(C(C)=O)c2)c([N+](=O)[O-])cc1OC [Ex. 1.9, 3-Acetyl-4-hydroxyphenyl (4,5-dimethoxy-2-nitrobenzyl) carbonate] | – | – | – | – | – | – | – | – | – | – | – | best results | concentration of saturated solution ([2]; acetonitrile/water 8:2 (v/v)+0.1% trifluoroacetic acid): < 2500 µg/mL
6 | CC(=O)c1cc(O)ccc1O [2,5-DHAP, 2,5-dihydroxyacetophenone, reference compound] | – | – | – | – | – | – | – | – | – | – | – | completely evaporated | –
7 | CC(=O)c1c(O)cccc1O [2,6-DHAP, 2,6-dihydroxyacetophenone] | – | – | – | – | – | – | – | – | – | – | – | – | sensitivity to vacuum conditions [4]: extremely sensitive to vacuum conditions and volatile
8 | COc1cc(COc2ccc(O)c(C(C)=O)c2)c([N+](=O)[O-])cc1OC [Ex. 1.1, 1-(5-((4,5-Dimethoxy-2-nitrobenzyl)oxy)-2-hydroxyphenyl)ethan-1-one] | ◯ | – | ◯ | ◯ | ◯ | ◯ | > 2500 | > 2500 | > 2500 | > 2500 | very good solubility | best results | average size of the resulting crystals [5]: about 1 μm; solubility [1, 20]: > 2500 µg/mL
9 | COc1cc(COc2cc3ccccc3oc2=O)c([N+](=O)[O-])cc1OC [Ex. 1.3, 3-((4,5-Dimethoxy-2-nitrobenzyl)oxy)-2H-chromen-2-one] | ◯ | ◯ | ◯ | ◯ | ◯ | ◯ | > 2500 | – | – | – | – | – | solubility (completely dissolved at 2.5 mg/mL) [1, 17]: ◯; solubility (completely dissolved at 2.5 mg/mL) [1, 18]: ◯; solubility (completely dissolved at 2.5 mg/mL) [1, 19]: ◯
10 | Sc1nc2ccccc2s1 [2-MBT, 2-mercaptobenzothiazole, reference compound] | – | – | – | – | – | – | – | – | – | – | – | – | dissolution at a concentration of 5 mg/mL ([2]; acetonitrile/water (1:1 v/v), 5 mg/mL): not completely dissolved
